Tests used:
[1] = biological target: human cannabinoid CB2 receptor (Homo sapiens, UniProt P34972); assay: Cannabinoid CB2 receptor agonist activity in yeast cells (FDGlu fluorescence)
[2] = Particle size analysis on Lecotrac laser particle size analyser, pre and post nanomilling; type: physicochemical; conditions: for Post-nanomilling 50% percentile particle size / Post-nanomilling 95% percentile particle size: after wet milling in aqueous 1.5% HPMC with YTZ beads; for Pre-nanomilling 50% percentile particle size / Pre-nanomilling 95% percentile particle size: starting material before nanomilling
Protocol: The particle size of the solid particles of compound (1) may be determined by laser diffraction. A suitable machine for determining particle size by laser diffraction is a Lecotrac laser particle size analyser, using an HELOS optical bench fitted with a QUIXEL dispersion unit.
2.5 g of compound of example 176 was weighed into a […] centrifuge tube. 25 ml of 0.3 mm yttrium zirconium (YTZ) ceramic milling beads (Manufacturer: Tosoh, Japan; Supplier: Glen Creston Ltd., batch no. 5280130030)”) was weighed into a 50 ml milling pot. 22.5 ml of aqueous 1.5% HPMC was measured with a measuring cylinder into a 100 ml beaker. This solution was homogenised for 3 seconds with an Ultra Turrax T25 homogeniser. Approximately 200 mg of the 2.5 g of the compound was added to the HPMC solution and homogenised at the lowest speed setting until the powder was wetted. This was repeated until all the compound had been added. The speed of the homogeniser was then increased to maximum and the suspension was homogenised for a further 3 minutes. This suspension was allowed to stand for 30 minutes in order to allow some of the foam to disperse. The suspension was then poured into the 50 ml pot containing the YTZ milling beads, stirring to release any trapped air. The lid to the pot was then fitted and the pot sealed with some Nesco film. This procedure was repeated for a second 50 ml nanomilling pot and both pots were placed on a Retsch mill and milled for a total of 8 hours.
The milling pots were removed from the Retsch mill and left to cool and for the foam to disperse overnight. In the morning the suspension and bead mixture was passed through a 200μ, 40 mm diameter screen. The contents from each 50 ml pot was washed with aqueous 1.5% HPMC: 10% of the original suspension volume (i.e. 2.5 ml). The suspension from the 2 pots was combined to make 1 batch. The suspension obtained from the method above was named the concentrate.
A particle size analysis was carried out on the Lecotrac laser particle size analyser. The results are shown in Table B along with the results from the starting material for comparison:
Compounds of Examples 19, 34, 194, 217, 228, 247 were nanomilled on a 1 g scale using the process described above and the particle size analysed pre and post nanomilling.

Sequence of human cannabinoid CB2 receptor (P34972 whole entry): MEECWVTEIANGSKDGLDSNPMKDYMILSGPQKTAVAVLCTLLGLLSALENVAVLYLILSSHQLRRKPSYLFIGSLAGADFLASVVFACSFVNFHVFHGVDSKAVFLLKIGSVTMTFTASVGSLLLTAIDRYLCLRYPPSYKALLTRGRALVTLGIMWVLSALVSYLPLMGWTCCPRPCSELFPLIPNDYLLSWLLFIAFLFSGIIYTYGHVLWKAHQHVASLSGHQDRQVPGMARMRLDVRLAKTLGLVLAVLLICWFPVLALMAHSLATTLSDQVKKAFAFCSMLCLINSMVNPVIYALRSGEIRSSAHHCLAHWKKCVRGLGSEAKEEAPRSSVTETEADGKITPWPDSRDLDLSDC

| SMILES | EC50 [1] [nM] | Post-nanomilling 50% percentile particle size [2] [μ] | Post-nanomilling 95% percentile particle size [2] [μ] | Pre-nanomilling 50% percentile particle size [2] [μ] | Pre-nanomilling 95% percentile particle size [2] [μ] |
| --- | --- | --- | --- | --- | --- |
| O=C(NCC1(O)CCCCC1)c1cnc(Nc2cccc(F)c2)nc1C(F)(F)F [Example 86, 2-(3-Fluoropheny1-amino)4-trifluoro-methyl-pyrimidine-5-carboxylic acid(1-hydroxy-cyclohexyl-methyl)amide] | 300 to 1000 |  |  |  |  |
| O=C(NCC1CCCCC1)c1cnc(Nc2cccc(F)c2)nc1C(F)(F)F [Example 19, 2-(3-Fluorophenylamino)-4-trifluoromethylpyrimidine-5-arboxylic acid cyclohexylmethyl-amide] |  | 0.40 | 1.40 | 5.22 | 25.5 |
| N#Cc1ccc(Nc2ncc(C(=O)NCC3CCCC3)c(C(F)(F)F)n2)cc1 [Example 176, 2-(4-Cyanophenylamino)-4-trifluoromethyl-pyrimidine-5-carboxylic acid cyclopentylmethyl-amide] |  | 0.33 | 1.78 | 13.15 | 68.7 |
| N#Cc1ccc(Nc2ncc(C(=O)NCC3CCOCC3)c(C(F)(F)F)n2)cc1Cl [Ex 217, 2-(4-Cyano-3-chloro-phenylamino)-4-trifluoromethyl-pyrimidine-5-carboxylic acid (tetrahydro-pyran-4-ylmethyl)-amide] |  | 0.34 | 1.30 | 5.70 | 34.9 |
| O=C(NCC1CCCC1)c1cnc(Nc2ccc(F)c(Cl)c2)nc1C(F)(F)F [Ex 247, 2-(3-Chloro-4-fluoro-phenylamino)-4-trifluoromethyl-pyrimidine-5-carboxylic acid cyclopentylmethyl-amide] |  | 0.64 | 2.53 | 13.2 | 68.7 |
| O=C(c1cnc(Nc2cccc(Br)c2)nc1C(F)(F)F)N1CCCCC1 [Example 12] | 20 to 300 |  |  |  |  |
| N#Cc1ccc(Nc2ncc(C(=O)NCC3CCC3)c(C(F)(F)F)n2)cc1Cl [Example 197] | 20 to 300 |  |  |  |  |
| O=C(NCC1CCCCC1)c1cnc(Nc2ccccc2)nc1C(F)(F)F [Example 5] | 20 to 300 |  |  |  |  |
| O=C(NCC1CCCO1)c1cnc(Nc2cccc(F)c2)nc1C(F)(F)F (stereo in doubt) [Example 73, 2-(3-Fluoro-phenylamino)-4-trifluoromethyl-pyrimidine-5-carboxylic acid [(R)-1-(tetrahydro-furan-2-yl)methyl]-amide] | 300 to 1000 |  |  |  |  |
| O=C(NC1CCSCC1)c1cnc(Nc2cccc(Cl)c2Cl)nc1C(F)(F)F [Example 81, 2-(2,3-Diclorophenylamino)-4-trifluoromethyl-pyrimidine-5-carboxylic acid (tetrahydro-thiopyran-4-yl)-amide] | 300 to 1000 |  |  |  |  |
| CC(C)CNC(=O)c1cnc(Nc2cccc(Cl)c2)nc1C(F)(F)F [Example 210] | 20 to 300 |  |  |  |  |

— patent publication US7635701B2 (Glaxo Group Limited, priority 2002, dated 2009)
